Assay results reported in patent publication US20180235221A1 (priority 2015, published 2018).

Legend:
[1] = test system: Qol resistant Septoria tritici isolate (3573); assay: Microtest, activity against causal agent of leaf blotch Septoria tritici; type: cell-based; settings: single active compound, MTP, 405 nm, 7 days after inoculation
[2] = test system: Qol resistant Alternaria solani isolate (141); assay: Microtest, activity against early blight pathogen Alternaria solani; type: cell-based; settings: single active compound, MTP, 405 nm, 7 days after inoculation

Q: `CNC(=O)C(=N/OC)/C(C)=C\COc1ccn(-c2ccc(Cl)cc2)n1` [Compound I-1, (Z,2E)-5-[1-(4-chlorophenyl)pyrazol-3-yl]oxy-2-methoxyimino-N,3-dimethyl-pent-3-enamide] was tested. Which Observed efficacy ([1]; 0.016 ppm) did it give?
A: 10%

Q: What about the Observed efficacy ([1]; 0.063 ppm) of the same compound?
A: 21%

Q: And the Observed efficacy ([1]; 0.25 ppm)?
A: 49%

Q: And the Observed efficacy ([2]; 0.25 ppm)?
A: 0%

Q: Which Observed efficacy ([1]; 0.016 ppm) does the source give for `CNC(=O)C(=N/OC)/C(C)=C\COc1ccn(-c2ccc(Cl)cc2Cl)n1` [Compound I-3, (Z,2E)-5-[1-(2,4-dichlorophenyl)pyrazol-3-yl]oxy-2-methoxyimino-N,3-dimethyl-pent-3-en-amide] here?
A: 10%

Q: And the Observed efficacy ([1]; 0.063 ppm)?
A: 32%

Q: And the Observed efficacy ([2]; 0.063 ppm)?
A: 0%

Q: What about the Observed efficacy ([2]; 0.25 ppm) of the same compound?
A: 0%

Q: How did the Observed efficacy ([1]; 0.25 ppm) turn out when `Cn1nnn(-c2cccc(Cl)c2COc2ccn(-c3ccc(Cl)cc3)n2)c1=O` [II-1, 1-[3-chloro-2[[1-(4-chlorophenyl)-1H-pyrazol-3-yl]oxymethyl]phenyl]-4-methyl-tetrazol-5-one] was run?
A: 23%

Q: And the Observed efficacy ([2]; 0.016 ppm)?
A: 0%

Q: What about the Observed efficacy ([2]; 0.063 ppm) of the same compound?
A: 0%

Q: Which results are given for `Cn1nnn(-c2cccc(Br)c2COc2ccn(-c3ccc(Cl)cc3)n2)c1=O` [II-2, 1-[3-bromo-2-[[1-(4-chlorophenyl)pyrazol-3-yl]oxymethyl]phenyl]-4-methyl-tetrazol-5-one]?
A: Observed efficacy ([2]; 0.016 ppm): 0%; Observed efficacy ([2]; 0.063 ppm): 0%; Observed efficacy ([2]; 0.25 ppm): 0%

Q: With `Cc1cccc(-n2nnn(C)c2=O)c1COc1ccn(-c2ccc(Cl)cc2)n1` [II-3, 1-[2-[[1-(4-chlorophenyl)pyrazol-3-yl]oxymethyl]-3-methyl-phenyl]-4-methyl-tetrazol-5-one] as the compound, how does the Observed efficacy ([1]; 0.25 ppm) read?
A: 17%

Q: What about the Observed efficacy ([2]; 0.016 ppm) of the same compound?
A: 0%

Q: With `Cn1nnn(-c2cccc(F)c2COc2ccn(-c3ccc(Cl)cc3)n2)c1=O` [II-4, 1-[2-[[1-(4-chlorophenyl)pyrazol-3-yl]oxymethyl]-3-fluoro-phenyl]-4-methyl-tetrazol-5-one] as the compound, how does the Observed efficacy ([2]; 0.016 ppm) read?
A: 0%

Q: What about the Observed efficacy ([2]; 0.063 ppm) of the same compound?
A: 0%

Q: `Cn1nnn(-c2cccc(F)c2COc2ccn(-c3ccc(Cl)cc3Cl)n2)c1=O` [II-5, 1-[2-[[1-(2,4-dichlorophenyl)pyrazol-3-yl]oxymethyl]-3-fluoro-phenyl]-4-methyl-tetrazol-5-one] was tested. Which Observed efficacy ([2]; 0.016 ppm) did it give?
A: 6%

Q: With `CC(=NOCc1c(C)cccc1-n1nnn(C)c1=O)c1cccc(C(F)(F)F)c1` [II-11, -methyl-4-[3-methyl-2-[[1-[3-(trifluoromethyl)-phenyl]-ethylideneamino]oxymethyl]phenyl]tetrazol-5-one] as the compound, how does the Observed efficacy ([2]; 0.016 ppm) read?
A: 0%

Q: What about the Observed efficacy ([2]; 0.063 ppm) of the same compound?
A: 0%

Q: What about the Observed efficacy ([2]; 0.25 ppm) of the same compound?
A: 15%
